Experimental data published in US8470806B2, “Perhexiline for treating chronic heart failure” (Heart Metabolics Limited, priority 2004, dated 2013).

Columns and labels:
patients with CHF [1] = assay: Cardiopulmonary exercise test (treadmill, Weber protocol, respiratory gas analysis); format: in vivo, human; conditions: for VO2max: mean ± SEM
From the text: An embodiment of the invention will now be described by way of example only wherein a double-blind, randomised, placebo-controlled study was undertaken in order to investigate the effects of perhexiline on chronic heart failure. 56 patients with CHF were recruited and all provided written informed consent. Entry criteria were as follows: left ventricular ejection fraction (LVEF) <40%, optimally medicated heart failure with New York Heart Association (NYHA) Class II-III symptoms. Cardiopulmonary exercise testing with respiratory gas analysis, completion of the Minnesota Living with Heart Failure Questionnaire (MLHFQ) and 2-D echocardiography were performed at baseline on all patients. Incremental exercise testing with assessment of respiratory gas exchange was performed on a treadmill using the Weber protocol. Breath by breath respiratory gases were measured during exercise using a Pulmolab EX670 system mass spectrometer which was calibrated before every study. Raw data were averaged to 30 second intervals and oxygen consumption during peak exercise was obtained (VO2 max; ml/kg/min). Electrocardiograms and blood pressure were monitored throughout. Exercise was terminated at the subject's request due to fatigue or breathlessness. […] The primary end-point for this study was pre-defined as VO2 max with the following secondary endpoints: MLHFQ score, LVEF, E:EA ratio, resting, low dose and high dose mean PSV during stress echocardiography and PCr t½. Therapy randomization of the ischemic and non-ischemic groups occurred separately but with similar protocols in order to allow for pre-hoc analysis of the primary endpoint in each group. […] Data were analyzed with SPSS 11.5 for Windows® and expressed as mean±standard error of mean. ANCOVA using baseline values as covariates was performed to test for significance of differences seen in the perhexiline vs. placebo groups following treatment.

patients with CHF [2] = assay: Minnesota Living with Heart Failure Questionnaire (MLHFQ); format: in vivo, human; conditions: for Minnesota living with heart failure questionnaire score: higher score = poorer quality of life
Procedure: A standard 21-question MLHFQ was employed to determine if perhexiline affected patient quality of life. This is a well validated measure of symptomatology in heart failure (17) and includes questions to assess the ability to perform activities of daily living as well as questions gauging the severity of symptoms due to heart failure. Each question was scored out of 5. The sum of the scores were calculated where a higher score indicated a poorer quality of life. All patients completed the questionnaires alone and without assistance. […] The primary end-point for this study was pre-defined as VO2 max with the following secondary endpoints: MLHFQ score, LVEF, E:EA ratio, resting, low dose and high dose mean PSV during stress echocardiography and PCr t½. Therapy randomization of the ischemic and non-ischemic groups occurred separately but with similar protocols in order to allow for pre-hoc analysis of the primary endpoint in each group. […] Data were analyzed with SPSS 11.5 for Windows® and expressed as mean±standard error of mean. ANCOVA using baseline values as covariates was performed to test for significance of differences seen in the perhexiline vs. placebo groups following treatment.

patients with CHF [3] = assay: Resting echocardiography (LVEF, volumes, long-axis PSV, E:EA ratio); format: in vivo, human; conditions: for Long axis function: PSV of lateral mitral valve annulus
Procedure: Echocardiography was performed with patients in the left lateral decubitus position using a Vingmed System V echocardiographic machine and a 2.5 MHz transducer. Images were stored digitally. Resting scans were acquired using standard echocardiographic windows for LVEF, transmitral valve Doppler, and resting tissue Doppler. […] Left ventricular volumes for calculation of LVEF were obtained using biplane echocardiography and the modified Simpson's formula. Volumes were averaged over 3 beats. In addition, on-line tissue Doppler peak systolic velocity (PSV) of the lateral mitral valve annulus was obtained as a reflection of left ventricular long-axis function. In theory, improving metabolic efficiency would also lead to an improvement in diastolic function of the left ventricle as energy is also required for cardiac relaxation. The ratio of peak E wave from transmitral valve Doppler vs. the E wave from tissue Doppler of the lateral mitral valve annulus (E:EA ratio) is a sensitive indicator of left ventricular end diastolic pressure (19). […] The primary end-point for this study was pre-defined as VO2 max with the following secondary endpoints: MLHFQ score, LVEF, E:EA ratio, resting, low dose and high dose mean PSV during stress echocardiography and PCr t½. Therapy randomization of the ischemic and non-ischemic groups occurred separately but with similar protocols in order to allow for pre-hoc analysis of the primary endpoint in each group. […] Data were analyzed with SPSS 11.5 for Windows® and expressed as mean±standard error of mean. ANCOVA using baseline values as covariates was performed to test for significance of differences seen in the perhexiline vs. placebo groups following treatment.

[4] = test system: patients with CHF (ischemic group); assay: Tissue Doppler / dobutamine stress echocardiography, ischemic group; format: in vivo, human; set-up: Mean PSV (15 segments): unit not given beside the values
Procedure: Tissue Doppler assessment of the left ventricle was performed at rest and analysed off-line using Echopac software in order to determine regional myocardial PSV from 15 left ventricular segments described in detail elsewhere (20). These segments were selected to include all areas supplied by the three major coronary arteries and for the greatest reproducibility for acquisition of PSV (21). (See FIG. 4) Following resting echocardiography dobutamine infusion was commenced via a syringe driver and incremented at 3 minute intervals from 5 mcg/kg/min to 10, 20, 30 and 40 mcg/kg/min. Digital loops of 15 views outlined above were stored at 90 seconds of each stage. Up to 1 mg of atropine was given if the hemodynamic response was submaximal. Electrocardiograms and blood pressure were monitored at each stage. End-points for termination of the test were attainment of ≧85% of the target heart rate, evidence of ischemia, or severe side effects from dobutamine. Data from all stages were analysed off-line as with the resting images. PSV data are expressed as velocity at rest, low dose dobutamine infusion ([…]) and peak dose dobutamine infusion (the last infusion stage before infusion terminated, which may include the addition of atropine).

Serum perhexiline levels = format: in vivo; conditions: human
patients with CHF [5] = assay: NYHA class before and after treatment; format: in vivo, human
Procedure: 56 patients with CHF were recruited and all provided written informed consent. Entry criteria were as follows: left ventricular ejection fraction (LVEF) <40%, optimally medicated heart failure with New York Heart Association (NYHA) Class II-III symptoms. Cardiopulmonary exercise testing with respiratory gas analysis, completion of the Minnesota Living with Heart Failure Questionnaire (MLHFQ) and 2-D echocardiography were performed at baseline on all patients.

patients with CHF [6] = assay: Safety and tolerability in the 8-week study (side effects, corrected QT, liver function, neuropathy)
Procedure: Following baseline studies, patients were randomized in a double-blind fashion to receive either perhexiline (n=28) or placebo (n=28) 100 mg twice daily. Blood was obtained at 1, 4, and 8 weeks after initiation of the drug for measurements of serum perhexiline levels with subsequent dose titration in order to prevent toxicity. Dose adjustments were advised as per a standard protocol by an unblinded physician. Identical dosage adjustments were also made for randomly allocated placebo-treated patients by the unblinded observer in order to ensure blinding of the investigators was maintained. After 8 weeks of treatment, patients were re-evaluated as above.

[7] = Post, after 8 weeks of treatment
[8] = all patients of the perhexiline group, 8 weeks

C1CCC(C(CC2CCCCN2)C2CCCCC2)CC1 (centres unmarked) [Perhexiline, 2-(2,2-dicyclohexylethyl)piperidine]
Exercise Time (patients with CHF [1]; [7]): 12.3 ± 1.1 min
VO2max (patients with CHF [1]; [7]): 18.8 ± 1.1 mL/min/kg
Exercise Time (patients with CHF [1]; Pre (baseline)): 10.5 ± 1.2 min
VO2max (patients with CHF [1]; Pre (baseline), perhexiline group): 16.1 ± 0.6 mL/min/kg
increase in VO2 max following treatment (patients with CHF [1]; [8]): 2.7 ± 0.8 mL/min/kg
increase in VO2 max following treatment (relative) (patients with CHF [1]; [8]): 16.7%
increase in VO2 max (patients with CHF [1]; ischemic group, 8 weeks): 2.9 ± 1.2 mL/min/kg
increase in VO2 max (patients with CHF [1]; non-ischemic group, 8 weeks): 2.5 ± 0.4 mL/min/kg
reduction of MLHFQ scores following treatment (patients with CHF [2]; 8 weeks): 24.4%
Minnesota living with heart failure questionnaire score (patients with CHF [2]; Post, after 8 weeks): 34 ± 5
Minnesota living with heart failure questionnaire score (patients with CHF [2]; Pre (baseline)): 45 ± 5
increase of mean LVEF following treatment (patients with CHF [3]; 8 weeks): 9.9 ± 2.0 absolute percentage points
relative increase of mean LVEF (patients with CHF [3]; 8 weeks): 42%
E:EA Ratio (patients with CHF [3]; Post, after 8 weeks): 6.5 ± 0.9
Left ventricular ejection fraction (patients with CHF [3]; Post, after 8 weeks): 34 ± 2 %
Left ventricular end-diastolic volume (patients with CHF [3]; Post, after 8 weeks): 212 ± 9 mL
Left ventricular end-systolic volume (patients with CHF [3]; Post, after 8 weeks): 140 ± 8 mL
Long axis function (patients with CHF [3]; Post, after 8 weeks): 7.2 ± 0.6^|| cm/s
E:EA Ratio (patients with CHF [3]; Pre (baseline)): 8.6 ± 0.6
Left ventricular ejection fraction (patients with CHF [3]; Pre (baseline)): 24 ± 1%
Left ventricular end-diastolic volume (patients with CHF [3]; Pre (baseline)): 232 ± 11 mL
Left ventricular end-systolic volume (patients with CHF [3]; Pre (baseline)): 176 ± 8 mL
Long axis function (patients with CHF [3]; Pre (baseline)): 5.8 ± 0.4 cm/s
Mean PSV (15 segments) ([4]; Low Dose dobutamine, Post): 5.0 ± 0.5
Mean PSV (15 segments) ([4]; Low Dose dobutamine, Pre): 4.7 ± 0.3
Mean PSV (15 segments) ([4]; Peak Dose dobutamine, Post): 8.2 ± 0.8
Mean PSV (15 segments) ([4]; Peak Dose dobutamine, Pre): 6.6 ± 0.5
Mean PSV (15 segments) ([4]; Rest, Post): 3.8 ± 0.2
Mean PSV (15 segments) ([4]; Rest, Pre): 3.3 ± 0.2
increase in peak dose PSV ([4]; ischemic cohort, peak dose dobutamine, 8 weeks): 24%
increase in resting mean PSV following treatment ([4]; ischemic cohort, rest, 8 weeks): 15%
concentration at 1 week (Serum perhexiline levels; Week 1, 100 mg twice daily with dose titration): 570 ± 190 ng/mL
concentration at 4 weeks (Serum perhexiline levels; Week 4, 100 mg twice daily with dose titration): 670 ± 200 ng/mL
concentration at 8 weeks (Serum perhexiline levels; Week 8, 100 mg twice daily with dose titration): 430 ± 120 ng/mL
NYHA Class (patients with CHF [5]; Post, after 8 weeks): 1.9 ± 0.2^+
NYHA Class (patients with CHF [5]; Pre (baseline)): 2.4 ± 0.1
deaths during the study period (patients with CHF [6]; 8-week course): no deaths in either group
Corrected QT Interval (patients with CHF [6]; Post, after 8 weeks): 413 ± 13 ms
Corrected QT Interval (patients with CHF [6]; Pre (baseline)): 413 ± 11 ms
Side effects (patients with CHF [6]; perhexiline group, 8-week course): restricted to transient nausea and dizziness during the first week of treatment
abnormal liver function tests or neuropathy (patients with CHF [6]; with close serum level monitoring and titration): None of the patients in this study developed abnormal liver function tests or neuropathy
